According to ChEMBL document CHEMBL5131495, “Discovery of unique thiazolidinone-conjugated coumarins as novel broad spectrum antibacterial agents” (Eur J Med Chem, 2022):
Values after ≈ are worked out from the molar mass of the structure shown.

Experiments:
Assay type in all cases: functional
Klebsiella pneumoniae = test: Antibacterial activity against Klebsiella pneumoniae assessed as inhibition of bacterial growth
Enterococcus faecalis = test: Antibacterial activity against Enterococcus faecalis assessed as inhibition of bacterial growth
Staphylococcus aureus [1] = test: Antibacterial activity against methicillin resistant Staphylococcus aureus N315 assessed as inhibition of bacterial growth
Acinetobacter baumannii = test: Antibacterial activity against Acinetobacter baumannii assessed as inhibition of bacterial growth
Staphylococcus aureus [2] = test: Antibacterial activity against Staphylococcus aureus ATCC 29213 assessed as inhibition of bacterial growth
Staphylococcus aureus [3] = test: Antibacterial activity against Staphylococcus aureus ATCC 25923 assessed as inhibition of bacterial growth
Escherichia coli [4] = test: Antibacterial activity against Escherichia coli assessed as inhibition of bacterial growth
Pseudomonas aeruginosa [5] = test: Antibacterial activity against Pseudomonas aeruginosa assessed as inhibition of bacterial growth
Staphylococcus aureus [6] = test: Antibacterial activity against Staphylococcus aureus assessed as inhibition of bacterial growth
Pseudomonas aeruginosa [7] = test: Antibacterial activity against Pseudomonas aeruginosa ATCC 27853 assessed as inhibition of bacterial growth
Escherichia coli [8] = test: Antibacterial activity against Escherichia coli ATCC 25922 assessed as inhibition of bacterial growth

Cc1cc(=O)oc2cc(/N=C3/S/C(=C\c4ccc(Cl)cc4Cl)C(=O)N3CCO)ccc12
MIC (Klebsiella pneumoniae): 64 µg/mL (≈ 135 µM)
MIC (Enterococcus faecalis): 128 µg/mL (≈ 269 µM)
MIC (Staphylococcus aureus [1]): 32 µg/mL (≈ 67.3 µM)
MIC (Acinetobacter baumannii): 4 µg/mL (≈ 8.41 µM)
MIC (Staphylococcus aureus [2]): 128 µg/mL (≈ 269 µM)
MIC (Staphylococcus aureus [3]): 128 µg/mL (≈ 269 µM)
MIC (Escherichia coli [4]): 256 µg/mL (≈ 539 µM)
MIC (Pseudomonas aeruginosa [5]): 64 µg/mL (≈ 135 µM)
MIC (Staphylococcus aureus [6]): 256 µg/mL (≈ 539 µM)
MIC (Pseudomonas aeruginosa [7]): 128 µg/mL (≈ 269 µM)
MIC (Escherichia coli [8]): 256 µg/mL (≈ 539 µM)

Cc1cc(=O)oc2cc(/N=C3/S/C(=C\c4ccc(C(F)(F)F)cc4)C(=O)N3CCO)ccc12
MIC (Klebsiella pneumoniae): 128 µg/mL (≈ 270 µM)
MIC (Enterococcus faecalis): 256 µg/mL (≈ 540 µM)
MIC (Staphylococcus aureus [1]): 256 µg/mL (≈ 540 µM)
MIC (Acinetobacter baumannii): 32 µg/mL (≈ 67.4 µM)
MIC (Staphylococcus aureus [2]): 256 µg/mL (≈ 540 µM)
MIC (Staphylococcus aureus [3]): 64 µg/mL (≈ 135 µM)
MIC (Escherichia coli [4]): 128 µg/mL (≈ 270 µM)
MIC (Pseudomonas aeruginosa [5]): 32 µg/mL (≈ 67.4 µM)
MIC (Staphylococcus aureus [6]): 128 µg/mL (≈ 270 µM)
MIC (Pseudomonas aeruginosa [7]): 256 µg/mL (≈ 540 µM)
MIC (Escherichia coli [8]): 256 µg/mL (≈ 540 µM)

Cc1ccc(/C=C2\S/C(=N/c3ccc4c(C)cc(=O)oc4c3)N(CCO)C2=O)cc1
MIC (Klebsiella pneumoniae): 256 µg/mL (≈ 609 µM)
MIC (Enterococcus faecalis): 256 µg/mL (≈ 609 µM)
MIC (Staphylococcus aureus [1]): 128 µg/mL (≈ 304 µM)
MIC (Acinetobacter baumannii): 8 µg/mL (≈ 19 µM)
MIC (Staphylococcus aureus [2]): 128 µg/mL (≈ 304 µM)
MIC (Staphylococcus aureus [3]): 256 µg/mL (≈ 609 µM)
MIC (Escherichia coli [4]): 128 µg/mL (≈ 304 µM)
MIC (Pseudomonas aeruginosa [5]): 128 µg/mL (≈ 304 µM)
MIC (Staphylococcus aureus [6]): 64 µg/mL (≈ 152 µM)
MIC (Pseudomonas aeruginosa [7]): 32 µg/mL (≈ 76.1 µM)
MIC (Escherichia coli [8]): 256 µg/mL (≈ 609 µM)

Cc1cc(=O)oc2cc(/N=C3/S/C(=C\c4ncc[nH]4)C(=O)N3CCO)ccc12
MIC (Klebsiella pneumoniae): 16 µg/mL (≈ 40.4 µM)
MIC (Enterococcus faecalis): 64 µg/mL (≈ 161 µM)
MIC (Staphylococcus aureus [1]): 64 µg/mL (≈ 161 µM)
MIC (Acinetobacter baumannii): 16 µg/mL (≈ 40.4 µM)
MIC (Staphylococcus aureus [2]): 32 µg/mL (≈ 80.7 µM)
MIC (Staphylococcus aureus [3]): 128 µg/mL (≈ 323 µM)
MIC (Escherichia coli [4]): 32 µg/mL (≈ 80.7 µM)
MIC (Pseudomonas aeruginosa [5]): 32 µg/mL (≈ 80.7 µM)
MIC (Staphylococcus aureus [6]): 8 µg/mL (≈ 20.2 µM)
MIC (Pseudomonas aeruginosa [7]): 128 µg/mL (≈ 323 µM)
MIC (Escherichia coli [8]): 64 µg/mL (≈ 161 µM)

Cc1cc(=O)oc2cc(/N=C3/S/C(=C\C4CCCCC4)C(=O)N3CCO)ccc12
MIC (Klebsiella pneumoniae): 256 µg/mL (≈ 621 µM)
MIC (Enterococcus faecalis): 256 µg/mL (≈ 621 µM)
MIC (Staphylococcus aureus [1]): 256 µg/mL (≈ 621 µM)
MIC (Acinetobacter baumannii): 64 µg/mL (≈ 155 µM)
MIC (Staphylococcus aureus [2]): 16 µg/mL (≈ 38.8 µM)
MIC (Staphylococcus aureus [3]): 256 µg/mL (≈ 621 µM)
MIC (Escherichia coli [4]): 256 µg/mL (≈ 621 µM)
MIC (Pseudomonas aeruginosa [5]): 256 µg/mL (≈ 621 µM)
MIC (Staphylococcus aureus [6]): 256 µg/mL (≈ 621 µM)
MIC (Pseudomonas aeruginosa [7]): 16 µg/mL (≈ 38.8 µM)
MIC (Escherichia coli [8]): 256 µg/mL (≈ 621 µM)

Cc1cc(=O)oc2cc(/N=C3\NC(=O)CS3)ccc12
MIC (Klebsiella pneumoniae): 4 µg/mL (≈ 14.6 µM)
MIC (Enterococcus faecalis): 256 µg/mL (≈ 933 µM)
MIC (Staphylococcus aureus [1]): 256 µg/mL (≈ 933 µM)
MIC (Acinetobacter baumannii): 256 µg/mL (≈ 933 µM)
MIC (Staphylococcus aureus [2]): 256 µg/mL (≈ 933 µM)
MIC (Staphylococcus aureus [3]): 64 µg/mL (≈ 233 µM)
MIC (Escherichia coli [4]): 16 µg/mL (≈ 58.3 µM)
MIC (Pseudomonas aeruginosa [5]): 64 µg/mL (≈ 233 µM)
MIC (Staphylococcus aureus [6]): 32 µg/mL (≈ 117 µM)
MIC (Pseudomonas aeruginosa [7]): 128 µg/mL (≈ 467 µM)
MIC (Escherichia coli [8]): 128 µg/mL (≈ 467 µM)

Cc1cc(=O)oc2cc(/N=C3/S/C(=C\c4ccc([N+](=O)[O-])cc4)C(=O)N3CCO)ccc12
MIC (Klebsiella pneumoniae): 64 µg/mL (≈ 142 µM)
MIC (Enterococcus faecalis): 32 µg/mL (≈ 70.9 µM)
MIC (Staphylococcus aureus [1]): 32 µg/mL (≈ 70.9 µM)
MIC (Acinetobacter baumannii): 32 µg/mL (≈ 70.9 µM)
MIC (Staphylococcus aureus [2]): 64 µg/mL (≈ 142 µM)
MIC (Staphylococcus aureus [3]): 128 µg/mL (≈ 284 µM)
MIC (Escherichia coli [4]): 128 µg/mL (≈ 284 µM)
MIC (Pseudomonas aeruginosa [5]): 64 µg/mL (≈ 142 µM)
MIC (Staphylococcus aureus [6]): 64 µg/mL (≈ 142 µM)
MIC (Pseudomonas aeruginosa [7]): 128 µg/mL (≈ 284 µM)
MIC (Escherichia coli [8]): 64 µg/mL (≈ 142 µM)
